Measurements reported in patent publication US9815841B2, “Compounds” (GLAXOSMITHKLINE INTELLECTUAL PROPERTY DEVELOPMENT LIMITED, priority 2014, dated 2017).

target: T1, purified recombinant 6HIS-Tev-LRRK2 (1326-2527) (Homo sapiens, UniProt Q5S007); test: Recombinant LRRK2 enzyme peptide substrate TR-FRET assay; assay type: biochemical; conditions: 60 nM LRRK2 (1326-2527), 1 uM Biotin-longer LRRKtide, 10 uM ATP; read-out: recombinant LRRK2 enzyme peptide substrate TR-FRET assay (pIC50) (converted)
T1 construct: A LRRK2 cDNA encoding residues 1326-2527 was received from Dundee University; made in house; host or cells: Spodoptera frugiperda (Sf9) insect cells, baculovirus (pFB-HTb)
T1 sequence (Q5S007 1326-2527): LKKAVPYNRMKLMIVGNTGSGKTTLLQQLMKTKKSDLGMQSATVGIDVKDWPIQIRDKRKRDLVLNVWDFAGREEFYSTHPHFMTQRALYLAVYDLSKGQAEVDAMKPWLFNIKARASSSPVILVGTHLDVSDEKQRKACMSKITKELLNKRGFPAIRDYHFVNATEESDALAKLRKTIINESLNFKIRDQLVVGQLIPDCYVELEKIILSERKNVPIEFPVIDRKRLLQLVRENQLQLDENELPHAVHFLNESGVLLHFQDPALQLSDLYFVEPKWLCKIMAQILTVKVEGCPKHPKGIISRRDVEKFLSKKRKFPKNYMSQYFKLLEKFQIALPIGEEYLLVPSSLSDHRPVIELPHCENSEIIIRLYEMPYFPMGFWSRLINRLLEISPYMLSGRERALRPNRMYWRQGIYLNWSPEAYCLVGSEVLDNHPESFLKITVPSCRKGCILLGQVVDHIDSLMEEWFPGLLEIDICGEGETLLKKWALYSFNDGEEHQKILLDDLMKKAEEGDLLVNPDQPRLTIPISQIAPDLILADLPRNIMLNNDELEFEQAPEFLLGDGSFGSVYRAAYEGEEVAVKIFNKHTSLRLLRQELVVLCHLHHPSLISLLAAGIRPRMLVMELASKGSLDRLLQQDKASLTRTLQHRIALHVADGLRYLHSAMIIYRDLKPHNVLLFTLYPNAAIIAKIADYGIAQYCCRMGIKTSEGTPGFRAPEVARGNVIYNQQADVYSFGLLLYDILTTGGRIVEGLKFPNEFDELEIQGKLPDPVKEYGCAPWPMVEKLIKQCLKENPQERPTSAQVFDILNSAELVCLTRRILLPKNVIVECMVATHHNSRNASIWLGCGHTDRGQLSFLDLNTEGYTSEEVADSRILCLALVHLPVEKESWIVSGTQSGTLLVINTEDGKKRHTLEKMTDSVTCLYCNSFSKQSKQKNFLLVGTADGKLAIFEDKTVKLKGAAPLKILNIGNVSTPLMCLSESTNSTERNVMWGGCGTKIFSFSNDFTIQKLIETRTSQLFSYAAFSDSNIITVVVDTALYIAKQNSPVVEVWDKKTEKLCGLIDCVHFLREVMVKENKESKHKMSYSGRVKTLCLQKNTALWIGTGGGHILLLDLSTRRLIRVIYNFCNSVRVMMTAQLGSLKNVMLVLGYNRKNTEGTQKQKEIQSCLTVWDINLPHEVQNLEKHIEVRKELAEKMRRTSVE
Procedure: This gene fragment was subcloned into pFB-HTb (Invitrogen) using BamHI and NotI restriction sites. The LRRK2 plasmid was recombined into the baculovirus genome according to the BAC-to-BAC protocol described by Invitrogen. Transfection into Spodoptera frugiperda (Sf9) insect cells was performed using Cellfectin (Invitrogen), according to the manufacturer's protocol to generate P1 and P2 baculovirus stocks.
Sf9 cells were grown in HyClone SFX (Thermo Scientific) growth media at 27° C., 80 rpm in shake flask until of a sufficient volume to inoculate a bioreactor. […] The cells were infected with P2 Baculovirus at a multiplicity of infection (MOI) of 3. The cultivation was continued for a 48 hour expression phase. The infected cells were removed from the growth media by centrifugation at 2500 g using a Sorvall RC 3C Plus centrifuge at 2500 g for 20 minutes. The cell pellet was immediately frozen and subsequently supplied for purification.
A 260 g pellet was allowed to thaw in a water bath at 27° C. with 800 ml lysis buffer/buffer A (50 mm Tris-HCl pH 8.5, 300 mM NaCl, 1 mm DTT, 10% glycerol, 1 ml/L calbiochem complete protease inhibitor cocktail and benzonase (50 ul/800 ml)) before being dounce homogenised on ice using 20 strokes per 100 ml. The suspension was packed in ice and sonicated at 50% amplitude for 3 min 10 sec on/off using a ¾″ probe. The suspension was then centrifuged at 100,000 g for 90 min, at 4° C.
The lysate (700 ml) was decanted from the insoluble pellet and contacted for 3 h at 4 C with 10 ml His bind Ni NTA resin by end over end mixing. The resin was recovered by centrifugation, 3000 g, 5 min at 4 C, and packed in an XK16 column. The column was then washed with 10 column volumes buffer A, 10 column volumes buffer B (buffer A+1M NaCl) and 10 column volumes buffer C (buffer A+20 mM imidazole). The column was then eluted with 15 column volumes buffer D (buffer A+300 mM imidazole) collecting 2 ml fractions. All washes and elution were conducted at 4 ml/min.
Fractions identified by SDS-PAGE as containing protein of interest were pooled and loaded directly onto a 320 ml SEC Superdex 200 pg column that was pre-equilibrated with buffer E (50 mM Tris-HCl pH 8.5, 300 mM NaCl, 10% glycerol, 1 mM DTT). The column was loaded and eluted with 1.2 column volumes buffer E at 2 ml/min collecting 2 ml fractions. Fractions identified by SDS-PAGE as containing protein of interest were tested for activity.
Production of Biotin-Longer LRRKtide
The resulting crude peptide was cleaved from the resin using a 95:2.5:2.5 mix of trifluoroacetic acid:triisopropylsilane:water.
Recombinant LRRK2 Enzyme Peptide Substrate TR-FRET Assay
Assay Protocol • 1. A 10 mM test compound was dissolved in 100% DMSO and serially diluted 1 in 4. 100 nL was then added to a 384 well low volume black plate, excluding columns 6 and 18. 100 nL of DMSO was added to columns 6 and 18 as controls wells. […] Test plates were then incubated for 30 minutes at room temperature. • 3. 3 uL ‘substate solution’ containing 2 uM Biotin-longer LRRKtide peptide substrate and 20 uM ATP was added to all wells of the plate using a multidrop combi dispenser giving a final assay concentration of 1 uM Biotin-longer LRRKtide and 10 uM ATP. Test plates were then incubated for 2 hours at room temperature. (Incubation may vary depending on rate and linearity of reaction with different enzyme batches). • 4. […] Data is analysed using ActivityBase software (IDBS). Dilutions and concentrations of reagents determined on a batch to batch basis

IC50, ≤ 10 nM:
CCOc1nc(Nc2ccc(C(=O)N3CC4CC4(CO)C3)cc2OC)nc2[nH]ccc12 (single isomer, unassigned) [Example E46, (4-((4-ethoxy-7H-pyrrolo-[2,3-d]-pyrimidin-2-yl)amino)-3-methoxyphenyl)(1-(hydroxymethyl)-3-azabicyclo-[3.1.0]-hexan-3-yl)methanone]
CCOc1nc(Nc2ccc(C(=O)N3CCC4(CC3)CC4COC)cc2OC)nc2[nH]ccc12 (single isomer, unassigned) [Example E52, (4-((4-ethoxy-7H-pyrrolo-[2,3-d]-pyrimidin-2-yl)amino)-3-methoxyphenyl)(1-(methoxymethyl)-6-azaspiro-[2.5]-octan-6-yl)methanone]
CCOc1nc(Nc2ccc(C(=O)N3CC4CC4(COC)C3)cc2OC)nc2[nH]ccc12 (single isomer, unassigned) [Example E64, (4-((4-ethoxy-7H-pyrrolo-[2,3-d]pyrimidin-2-yl)amino)-3-methoxyphenyl)-(1-(methoxymethyl)-3-azabicyclo[3.1.0]hexan-3-yl)methanone]
CCOc1nc(Nc2cc(F)c(C(=O)N3CCN(C)CC3)cc2OC)nc2[nH]ccc12 [Example E5, (4-((4-ethoxy-7H-pyrrol-[2,3-d]pyrimidin-2-yl)amino)-2-fluoro-5-methoxyphenyl)(4-methylpiperazin-1-yl)-methanone]
CCOc1nc(Nc2ccc(C(=O)N3CCN(C)CC3)cc2OC(F)F)nc2[nH]ccc12 [Example E7, (3-(difluoromethoxy)-4-((4-ethoxy-7H-pyrrolo-[2,3-d]-pyrimidin-2-yl)amino)phenyl)(4-methylpiperazin-1-yl)-methanone]
CCOc1nc(Nc2ccc(C(=O)N3CCN(C)CC3)cc2OCC2CC2)nc2[nH]ccc12 [Example E8, (3-(cyclopropylmethoxy)-4-((4-ethoxy-7H-pyrrolo-[2,3-d]-pyrimidin-2-yl)amino)phenyl)(4-methylpiperazin-1-yl)-methanone]
CCOc1cc(C(=O)N2CCN(C)CC2)ccc1Nc1nc(OCC)c2cc[nH]c2n1 [Example E25, (3-ethoxy-4-((4-ethoxy-7H-pyrrolo-[2,3-d]pyrimidin-2-yl)amino)phenyl)(4-methylpiperazin-1-yl)methanone]
CCOc1nc(Nc2ccc(C(=O)N3CCN(C)[C@H](C)C3)cc2OC)nc2[nH]ccc12 [Example E29, (R)-(3,4-dimethylpiperazin-1-yl)-(4-((4-ethoxy-7H-pyrrolo-[2,3-d]-pyrimidin-2-yl)amino)-3-methoxyphenyl)methanone]
CCOc1nc(Nc2ccc(C(=O)N3CCC[C@@H]3COC)cc2OC)nc2[nH]ccc12 [Example E35, (R)-(4-((4-ethoxy-7H-pyrrolo-[2,3-d]pyrimidin-2-yl)amino)-3-methoxyphenyl)(2-(methoxymethyl)pyrrolidin-1-yl)methanone]
CCOc1nc(Nc2ccc(C(=O)N3CCC(F)CC3)cc2OC)nc2[nH]ccc12 [Example E36, (4-((4-ethoxy-7H-pyrrolo-[2,3-d]pyrimidin-2-yl)amino)-3-methoxyphenyl)(4-fluoropiperidin-1-yl)methanone]
CCOc1nc(Nc2ccc(C(=O)N3CCN(C)[C@@H](C)C3)cc2OC)nc2[nH]ccc12 [Example E41, (S)-(3,4-dimethylpiperazin-1-yl)(4-((4-ethoxy-7H-pyrrolo-[2,3-d]-pyrimidin-2-yl)amino)-3-methoxyphenyl)methanone]
CCOc1nc(Nc2ccc(C(=O)N3CCC(COC)CC3)cc2OC)nc2[nH]ccc12 [Example E42, (4-((4-ethoxy-7H-pyrrolo-[2,3-d]-pyrimidin-2-yl)amino)-3-methoxyphenyl)(4-(methoxymethyl)piperidin-1-yl)methanone]
CCOc1nc(Nc2ccc(C(=O)N3CCCC4(COC4)C3)cc2OC)nc2[nH]ccc12 [Example E44, (4-((4-ethoxy-7H-pyrrolo-[2,3-d]pyrimidin-2-yl)amino)-3-methoxyphenyl)(2-oxa-6-azaspiro-[3.5]nonan-6-yl)methanone]
CCOc1nc(Nc2ccc(C(=O)N3[C@H](C#N)C[C@@H]4C[C@@H]43)cc2OC)nc2[nH]ccc12 [Example E66, (1 S,3S,5S)-2-(4-((4-ethoxy-7H-pyrrolo-[2,3-d]pyrimidin-2-yl)amino)-3-methoxybenzoyl)-2-azabicyclo-[3.1.0]-hexane-3-carbonitrile]
